Assay results published in patent US20250152650A1, “COMPOSITIONS FOR TREATING SEA LICE IN SALMON AND RELATED METHODS” (KEMIN INDUSTRIES, INC., priority 2023, published 2025).
Where two headings read alike, the source gives them in different places.

Legend:
[1] = system: copepodid sea lice; conditions: 10 parts per trillion, purified compounds; cited from earlier work
[2] = system: L. salmonis copepodids of Canadian origin; assay: Copepodid bioassay, copepodids of Canadian origin; design: species or system Lepeophtheirus salmonis; conditions: for Mean proportion of survival: 24 hours exposure
[3] = system: mobile stage sea lice (adults and pre-adults); assay: Mobile stages bioassay; design: species or system Lepeophtheirus salmonis
[4] = system: sea lice; assay: In-feed trial with sea lice challenge in Atlantic salmon; assay type: in vivo, Atlantic salmon (Salmo salar); conditions: for Reduction Versus Control: reduction in mean number of lice at 6-7 dpi versus Control Diet; for Reduction Versus Control / Reduction Versus SLICE: diet doses as in Table 10; for Reduction Versus SLICE: reduction in mean number of lice at 6-7 dpi versus SLICE (10 ppm) diet; for Mean Number of Lice: total copepodid and chalimus lice per fish at 6-7 dpi, study diet fed 3 weeks before challenge with approx. 140 lice per fish, O-LD oregano oil 2000 ppm, O-HD 5000 ppm, M-LD Monarda fistulosa oil 2000 ppm, thymol 1000 ppm, thymoquinone 500 ppm, SLICE 10 ppm
[5] = system: copepodids of Norwegian origin; conditions: for Mean proportion of survival: 24 hours exposure
[6] = system: copepodids of Norwegian origin; assay: whole plant or invertebrate; conditions: Lepeophtheirus salmonis, 24 h, read-out: lethality / lice mortality
[7] = system: salmon; conditions: farmed salmon; cited from earlier work

| Molecule | masking of copepodid attraction to hosts or alpha-isophorone conditioned seawater [1] | Mean proportion of survival ([3]; 10 ppm, 6 hours exposure) [%] | Mean proportion of survival ([3]; 10 ppm, 24 hours exposure) [%] | Reduction Versus Control [4] [%] | Reduction Versus SLICE [4] [%] | Mean Number of Lice [4] | Mean proportion of survival ([5]; 0.01 ppb) [%] | Mean proportion of survival ([5]; 0.1 ppb) [%] | Mean proportion of survival ([5]; 1 ppb) [%] | Mean proportion of survival ([5]; 1 ppm) [%] | Mean proportion of survival ([5]; 10 ppb) [%] | Mean proportion of survival ([5]; 10 ppm) [%] | Mean proportion of survival ([5]; 100 ppb) [%] | Mean proportion of survival ([3]; 1 ppb, 6 hours exposure) [%] | Mean proportion of survival ([3]; 1 ppb, 24 hours exposure) [%] | Mean proportion of survival ([3]; 1 ppm, 6 hours exposure) [%] | Mean proportion of survival ([3]; 1 ppm, 24 hours exposure) [%] | Mean proportion of survival ([3]; 10 ppb, 6 hours exposure) [%] | Mean proportion of survival ([3]; 10 ppb, 24 hours exposure) [%] | Mean proportion of survival ([3]; 100 ppb, 6 hours exposure) [%] | also measured |
| --- | --- | --- | --- | --- | --- | --- | --- | --- | --- | --- | --- | --- | --- | --- | --- | --- | --- | --- | --- | --- | --- |
| C=CCSSCC=C [Diallyl disulfide, diallyl disulfide] | masked copepodid sea lice attraction to hosts | 100.0 ± 0.0 | 96.7 ± 4.7 |  |  |  |  |  |  |  |  |  |  |  |  |  |  |  |  |  | Mean proportion of survival ([2]; 1 ppb): 96.9 ± 2.7%; Mean proportion of survival ([2]; 1 ppm): 86.3 ± 4.0%; Mean proportion of survival ([2]; 10 ppb): 93.6 ± 8.0%; Mean proportion of survival ([2]; 10 ppm): 34.6 ± 6.4%; Mean proportion of survival ([2]; 10 ppm, listed as DD): 34.6%; Mean proportion of survival ([2]; 100 ppb): 95.2 ± 4.6%; Mean proportion of survival ([2]; 100 ppm (0.01%)): 17.4 ± 3.2%; Mean proportion of survival ([2]; 100 ppm (0.01%), listed as DD): 17.4%; survival compared to control, in words ([3]; 10 and 100 ppm): did not result in different survival compared to control; Mean proportion of survival ([3]; 100 ppm, 6 hours exposure): 96.2 ± 5.4%; Mean proportion of survival ([3]; 100 ppm, 24 hours exposure): 88.7 ± 5.8% |
| Cc1ccc(C(C)C)c(O)c1 [Thymol] |  | 23.7 ± 6.9 |  | 1.2 | −14.6 | 86.5 | 98.7 ± 2.2 | 93.9 ± 4.4 | 100.0 ± 0.0 | 87.9 ± 3.9 | 93.1 ± 9.3 | 56.1 ± 2.0 | 84.4 ± 6.1 | 100.0 ± 0.0 | 96.2 ± 5.4 | 92.8 ± 0.7 | 92.8 ± 0.7 | 95.8 ± 5.9 | 88.1 ± 5.0 | 97.1 ± 4.2 | Mean proportion of survival ([3]; 1 ppm, 24 hours exposure, listed as thymol): not significantly different to control; Mean proportion of survival ([3]; 100 ppb, 24 hours exposure): 97.1 ± 4.2% |
| CC1=CC(=O)C(C(C)C)=CC1=O [Thymoquinone] |  | 60.7 ± 5.1 | 0.0 ± 0.0 | 1.7 | 21.7 | 59.1 | 98.1 ± 3.2 | 98.6 ± 2.4 | 97.3 ± 2.5 | 75.6 ± 9.3 | 100.0 ± 0.0 | 0.0 ± 0.0 | 92.9 ± 9.1 | 93.3 ± 9.4 | 93.3 ± 9.4 | 100.0 ± 0.0 | 83.7 ± 14.7 | 81.7 ± 5.4 | 87.1 ± 5.4 | 91.7 ± 2.4 | mortality at 10 ppm [6]: 100%; Mean proportion of survival ([5]; 1 ppm, listed as thymoquinone): did not result in a biologically significant reduction in survival; Mean proportion of survival ([3]; 1 ppm, 24 hours exposure, listed as thymoquinone): not significantly different to control; Mean proportion of survival ([3]; 10 ppm, 24 hours exposure, listed as thymoquinone): completely lethal; Mean proportion of survival ([3]; 100 ppb, 24 hours exposure): 91.7 ± 2.4% |
| C=CCSCC=C [diallyl sulfide] | masked copepodid sea lice attraction to hosts |  |  |  |  |  |  |  |  |  |  |  |  |  |  |  |  |  |  |  |  |
| OO [hydrogen peroxide] |  |  |  |  |  |  |  |  |  |  |  |  |  |  |  |  |  |  |  |  | mortality caused by a single treatment [7]: 1% |
| emamectin benzoate [EMB, reference compound] |  |  |  |  |  |  |  | 0.0 ± 0.0 | 0.0 ± 0.0 |  | 0.0 ± 0.0 |  |  |  |  |  |  |  |  | 96.7 ± 4.7 | survival, range over the dilution set ([2]; 0.5-50 ppb, 24 hours): 35.5-53.2%; Mean proportion of survival ([2]; 0.5 ppb): 53.2 ± 10.2%; Mean proportion of survival ([2]; 5 ppb): 50.7 ± 6.1%; Mean proportion of survival ([2]; 50 ppb): 35.5 ± 2.1%; survival, in words ([5]; all tested concentrations between 10 and 0.1 ppb): no survival; Mean proportion of survival ([3]; 200 ppb, 6 hours exposure): 56.7 ± 4.7%; Mean proportion of survival ([3]; 200 ppb, 24 hours exposure): 53.3 ± 18.9%; Mean proportion of survival ([3]; 400 ppb, 6 hours exposure): 36.7 ± 14.1%; Mean proportion of survival ([3]; 400 ppb, 24 hours exposure): 23.3 ± 4.7%; Mean proportion of survival ([3]; 500 ppb, 24 hours, follow up trial): 46.9 ± 9.8% |
